Structures can show the parent of a compound that is named as a salt.
What was measured:
DNA polymerase α = target: T1, DNA polymerase α (Bos taurus, UniProt A0AAA9TD94); assay: Inhibitory effect against DNA polymerase α ([3H]-dTTP incorporation); assay type: biochemical; settings: DNA polymerase α from bovine thymus, 0.05 U, 37° C. for 60 minutes
T1 construct: from tissue; host or cells: bovine thymus
T1 sequence (A0AAA9TD94 1-1441): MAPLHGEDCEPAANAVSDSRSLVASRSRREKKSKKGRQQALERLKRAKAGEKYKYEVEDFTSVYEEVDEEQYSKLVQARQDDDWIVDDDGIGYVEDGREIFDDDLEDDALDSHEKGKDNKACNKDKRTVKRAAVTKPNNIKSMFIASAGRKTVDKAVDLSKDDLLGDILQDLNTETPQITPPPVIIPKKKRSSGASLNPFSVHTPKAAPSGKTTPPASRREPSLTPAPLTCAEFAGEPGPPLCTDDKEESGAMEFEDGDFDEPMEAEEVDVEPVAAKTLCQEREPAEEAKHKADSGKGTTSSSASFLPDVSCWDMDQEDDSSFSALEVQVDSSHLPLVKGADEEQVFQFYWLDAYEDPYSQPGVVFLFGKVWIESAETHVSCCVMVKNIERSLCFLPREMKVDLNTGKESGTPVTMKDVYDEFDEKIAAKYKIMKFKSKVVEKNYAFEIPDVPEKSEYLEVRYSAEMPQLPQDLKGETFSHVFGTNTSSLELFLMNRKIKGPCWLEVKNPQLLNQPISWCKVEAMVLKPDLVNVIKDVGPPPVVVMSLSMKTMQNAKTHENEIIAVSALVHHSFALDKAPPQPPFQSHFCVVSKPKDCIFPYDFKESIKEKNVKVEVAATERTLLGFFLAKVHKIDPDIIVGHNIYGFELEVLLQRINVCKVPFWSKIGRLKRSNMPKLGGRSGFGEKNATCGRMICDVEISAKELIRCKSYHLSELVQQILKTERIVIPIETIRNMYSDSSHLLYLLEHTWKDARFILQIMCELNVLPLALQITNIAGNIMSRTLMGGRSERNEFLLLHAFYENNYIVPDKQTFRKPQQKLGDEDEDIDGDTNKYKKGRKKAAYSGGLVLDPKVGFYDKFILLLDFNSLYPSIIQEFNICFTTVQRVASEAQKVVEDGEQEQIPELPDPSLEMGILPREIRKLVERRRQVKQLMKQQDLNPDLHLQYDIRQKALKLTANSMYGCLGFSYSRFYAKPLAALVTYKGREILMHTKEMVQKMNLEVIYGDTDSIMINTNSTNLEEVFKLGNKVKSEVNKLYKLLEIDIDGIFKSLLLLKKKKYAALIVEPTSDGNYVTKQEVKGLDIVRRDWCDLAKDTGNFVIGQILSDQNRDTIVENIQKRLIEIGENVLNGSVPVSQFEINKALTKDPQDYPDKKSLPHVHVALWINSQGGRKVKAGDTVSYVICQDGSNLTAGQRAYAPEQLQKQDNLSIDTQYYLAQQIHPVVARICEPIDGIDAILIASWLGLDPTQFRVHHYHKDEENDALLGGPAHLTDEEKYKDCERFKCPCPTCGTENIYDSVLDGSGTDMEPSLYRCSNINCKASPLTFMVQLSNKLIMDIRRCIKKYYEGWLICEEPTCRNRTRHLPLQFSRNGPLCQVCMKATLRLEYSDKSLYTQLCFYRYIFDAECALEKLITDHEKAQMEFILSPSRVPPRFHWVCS
Method: An assay on inhibitory effect against a DNA polymerase α was carried out in the following manner.
Each mixture was added with a buffer containing inorganic salts for the enzymatic reaction, [^3H]-labeled dTTP and compounds for reaction containing a template DNA strand, and incubated at 37° C. for 60 minutes.
After the enzymatic reaction was quenched, the resultant reaction product was fixed on a dedicated filter and subjected to measurement by a liquid scintillation counter. The amount of enzymatically incorporated dTTP was calculated as a radiation dose (cpm) of [^3H]. Note that, each of the sulfofucosylacylglycerol derivatives is a mixture of the S- and R-configurations with respect to an absolute configuration of the carbon of the 2-position of the glycerol moiety.
The results are shown as IC50 in Table 1 below.

Colon cancer cells DLD-1 = assay: Anticancer activity against cultured colon cancer cells (MTT assay); assay type: cell-based; settings: Homo sapiens, DLD-1, 48 hour cultivation
Method: An assay on anticancer activity against cultured colon cancer cells was carried out in the following manner.
(§1) Colon cancer cells DLD-1 were maintained and subcultured in RPMI 1640 medium (containing 10% calf serum). Each of the test compounds (SFAG1 to SFAG3 shown in Table 1) was suspended and diluted in the medium, and then the cancer cells were cultivated together with the medium in a 96-well plate at 3×10^3 cells/well. After 48 hour cultivation, the MTT assay (Mosmann, T: Journal of Immunological Method, 65, 55-63 (1983)) was carried out to compare survival rates.
The results are shown as IC50 in Table 2 below.

[1] = tested on: gastric cancer cells NUGC-3; assay: Anticancer activity against cultured gastric cancer cells (MTT assay); assay type: cell-based; settings: Homo sapiens, NUGC-3, 48 hour cultivation
Method: as §1
An assay on anticancer activity against cultured gastric cancer cells was carried out in the same manner as in the Assay 2 except that gastric cancer cells NUGC-3 were used instead of the colon cancer cells DLD-1.
The results are shown as IC50 in Table 3 below.

| Compound | IC50 (Colon cancer cells DLD-1) [µg/mL] | IC50 [1] [µg/mL] | IC50 (DNA polymerase α) [µM] |
| --- | --- | --- | --- |
| CCCCCCCCCCCCCC(=O)OCC(CO[C@H]1O[C@H](CS(=O)(=O)O)[C@H](O)[C@H](O)[C@H]1O)OC(=O)CCCCCCCCCCCCC (stereo partly drawn) [SFAG4, 3-O-(6-deoxy-6-sulfo-α-D-galactopyranosyl)-1,2-di-O-myristoyl-glycerol sodium salt] | – | – | 0.657 |
| CCCCCCCCCCCCCCCC(=O)OCC(CO[C@H]1O[C@H](CS(=O)(=O)O)[C@H](O)[C@H](O)[C@H]1O)OC(=O)CCCCCCCCCCCCCCC (stereo partly drawn) [SFAG5, 3-O-(6-deoxy-6-sulfo-α-D-galactopyranosyl)-1,2-di-O-palmitoyl-glycerol sodium salt] | – | – | 0.551 |
| CCCCCCCCCCCCCCCCCC(=O)OCC(CO[C@H]1O[C@H](CS(=O)(=O)O)[C@H](O)[C@H](O)[C@H]1O)OC(=O)CCCCCCCCCCCCCCCCC (stereo partly drawn) [SFAG6, 3-O-(6-deoxy-6-sulfo-α-D-galactopyranosyl)-1,2-di-O-stearoyl-glycerol sodium salt] | – | – | 0.458 |

Second part, led by results:

| IC50 (Colon cancer cells DLD-1) [µg/mL] | IC50 [1] [µg/mL] | Compound | IC50 (DNA polymerase α) [µM] |
| --- | --- | --- | --- |
| 44 | 44.3 | CCCCCCCCCCCCCC(=O)OCC(O)CO[C@H]1O[C@H](CS(=O)(=O)[O-])[C@H](O)[C@H](O)[C@H]1O.[Na+] (stereo partly drawn) [SFAG1, 3-O-(6-deoxy-6-sulfo-α-D-galactopyranosyl)-1-O-myristoyl-glycerol sodium salt] | 7.63 |
| 41.5 | 41.7 | CCCCCCCCCCCCCCCC(=O)OCC(O)CO[C@H]1O[C@H](CS(=O)(=O)[O-])[C@H](O)[C@H](O)[C@H]1O.[Na+] (stereo partly drawn) [SFAG2, 3-O-(6-deoxy-6-sulfo-α-D-galactopyranosyl)-1-O-palmitoyl-glycerol sodium salt] | 8.64 |
| 27.5 | 30.3 | CCCCCCCCCCCCCCCCCC(=O)OCC(O)CO[C@H]1O[C@H](CS(=O)(=O)[O-])[C@H](O)[C@H](O)[C@H]1O.[Na+] (stereo partly drawn) [SFAG3, 3-O-(6-deoxy-6-sulfo-α-D-galactopyranosyl)-1-O-stearoyl-glycerol sodium salt] | 8.24 |

Source: US6740640B2, “Sulfofucosylacylglycerol derivatives and administration thereof as medicaments” (Toyo Suisan Kaisha, Ltd., priority 1999, dated 2004)
